In US20080200532A1 (Teva Pharmaceuticals USA, Inc. for Barbados, priority 2003, published 2008):

Columns and labels:
[1] = according to the '340 patent; cited from earlier work
[2] = Stability study of Form XIV, polymorph content by X-Ray Powder Diffraction analysis; type: physicochemical
Excerpt: [table] Powder X-ray diffraction data were obtained using methods known in the art on a […] powder X-ray diffractometer model X'TRA equipped with a solid state detector. Copper radiation of 1.5418 Å was used. A round aluminum sample holder with zero background was used.

[3] = Stability studies, appearance after storage; type: physicochemical; settings: storage at 40 EC for three months

Compound	Hygroscopicity [1]	Polymorph content by X-Ray Powder Diffraction analysis ([2]; 25° C., 60% RH, 1 M)	Polymorph content by X-Ray Powder Diffraction analysis ([2]; 25° C., 60% RH, 2 M)	Polymorph content by X-Ray Powder Diffraction analysis ([2]; 25° C., 60% RH, 3 M)	Polymorph content by X-Ray Powder Diffraction analysis ([2]; 40° C., 75% RH, 1 M)	Polymorph content by X-Ray Powder Diffraction analysis ([2]; 40° C., 75% RH, 2 M)	Polymorph content by X-Ray Powder Diffraction analysis ([2]; 40° C., 75% RH, 3 M)	Polymorph content by X-Ray Powder Diffraction analysis ([2]; 55° C., 1 M)	Polymorph content by X-Ray Powder Diffraction analysis ([2]; 55° C., 2 M)	Polymorph content by X-Ray Powder Diffraction analysis ([2]; 55° C., 3 M)	Transformation into Form B upon storage ([2]; storage at 25, 40 and 55° C., for at least 3 months)	Polymorph content by X-Ray Powder Diffraction analysis ([2]; t = 0)	Change of appearance (white to pale yellow powder) after storage [3]
CC(C)n1c(/C=C/[C@@H](O)C[C@@H](O)CC(=O)O)c(-c2ccc(F)cc2)c2ccccc21 (racemic) [Form B, fluvastatin sodium]	low hygroscopicity												
CC(C)n1c(/C=C/[C@@H](O)C[C@@H](O)CC(=O)O)c(-c2ccc(F)cc2)c2ccccc21 (relative stereo) [Form XIV, [R*,S*-(E)]-(±)-7-[3-(4-fluorophenyl)-1-(1-methylethyl)-1H-indol-2-yl]-3,5-dihydroxy-6-heptenoic acid monosodium]		XIV	XIV	XIV	XIV	XIV	XIV	XIV	XIV	XIV	no more than 5%	XIV	does not change
